# Assay results as given in US12036241B2, “Compositions and methods for immune cell modulation in adoptive immunotherapies” (Fate Therapeutics, Inc., priority 2017, dated 2024).
# Entries after “also recorded” stand apart in the source; their conditions may differ.
# Assays:
# CD8+ T cells = assay: Cytokine production (IFNγ, IL-2, TNFα) after PMA/ionomycin, intracellular staining; format: cell-based, human; details: PMA/ionomycin 4 h; for increase of IFNγ+ only subpopulation / increase of IL-2 only subpopulation: FIG. 3D
# Description: The ability of T cells to respond to a variety of stimuli can be important to their function. The capacity of T cells to produce multiple cytokines in response to non-specific stimulation is a measure of their ‘multifunctionality’. To assess whether compounds affect this ‘multifunctional’ response, the ability of modulated T cells to produce interferon-γ (IFNγ), IL-2 and/or TNFα post-stimulation was determined. After CD8^+ T cell treatment with each of the selected compounds, cells were stimulated with a mixture of PMA/ionomycin for four hours. Following stimulation, cytokine production was measured using intracellular cytokine staining with antibodies recognizing these cytokines conjugated to different fluorophores. Fluorescence was measured using flow cytometry. Cell were defined as multifunctional if they produced two or more cytokines. The proportion of T cell subsets that produce specific single, double or triple cytokines was examined and compared to cells without modulation using a selected compound.
# The ability of T cells to respond to a variety of stimuli is important for their function. The capacity of T cells to produce multiple cytokines in response to non-specific stimulation is a measure of their “multifunctionality”. To assess whether selected compounds affect this “multifunctional” response in view of their phenotype skewing effect on the treated cells, the ability of treated cells to produce interferon-γ (IFNγ), IL-2 and TNFα post-stimulation was determined. After treatment of CD8+ T cells with a compound from Table 1, cells were stimulated with a mixture of PMA/ionomycin for four hours. Following stimulation, cytokine production was measured by intracellular cytokine staining with fluorescence-emitting antibodies recognizing these cytokines conjugated to different fluorophores. Fluorescence was measured using flow cytometry. Cells were defined as multifunctional if they produced at least two of the three cytokines.
# [1] = test system: T cells from healthy donors; assay: T cell viability and expansion after compound treatment; format: cell-based, human; details: FIGS. 2A, 2B
# Excerpt: (§1) Fresh leukopaks (AllCells, Alameda, Calif.; Key Biologics, Memphis, Tenn.) were obtained from healthy donors, from which T cells were negatively selected using, for example, the EasySep Human T Cell Enrichment Kit (Stem Cell Technologies, Vancouver, Canada). The freshly isolated T cells were aliquoted and cryopreserved. On the day the assays were initiated, T cells were thawed and washed into X-Vivo 15 with supplements including IL-2 and pen/strep. Cells were dispensed into flat-bottom 384-well plates at 5×10^5 cells/ml with anti-CD3/Anti-CD28 beads. Individual compounds were added at a final concentration over the range of 10 μM to 10 nM to each well from column 3 to column 22 of each plate. Positive and negative controls were added to additional wells. Cells were incubated for about 6 days at 37 degrees with 5% CO2.
# (§2) These studies were performed with T cells from healthy donors. Six days post-initiation of culture in the presence of anti-CD3/CD28 beads and compound addition, cells were harvested and stained with a fixable viability marker and fluorophore-conjugated antibodies: CD3, CD4, CD8, CD62L, CCR7, CD27, and Tim3 (BD Biosciences, San Jose, Calif.; and BioLegend, San Diego, Calif.). Fluorescent absolute counting beads (Spherotech, Lake Forest, IL) were added just prior to acquisition. Data acquisition was performed on a BD Fortessa™ X-20 (BD Biosciences) and data were analyzed using Treestar™ software (FlowJo, Ashland, Oreg.) and Spotfire (Tibco, Boston, Mass.). The expression of surface markers including CD62L, CCR7 and CD27 was used to identify naïve, stem cell memory, or central memory T cells. After the treatment with each of the compounds, the surface marker expression profile of the treated cells was evaluated along with characterization of cell proliferation and viability. Compounds were scored on expression of these individual Tcm markers as well as CD62L/CCR7 double positive cells. Gene expression scores were also obtained based on a panel of selected 12 genes (Table 2) that are maximally differentially expressed in CD8 Tcm cells relative to Tem.
# The phenotypic studies of the surface markers also included characterization of cell viability (FIG. 2A) and cell expansion (FIG. 2B). Scores for the graphs in FIGS. 2A-B were obtained using the formula: (Test value−minimum value)/(maximum value—minimum value)×10
# [2] = test system: T cells from healthy donors; assay: Phenotypic profiling of T cells: CCR7, CD62L, CD27 surface markers by flow cytometry; format: cell-based, human; details: FIG. 1A; for Tcm phenotype / effect on improving Tcm percentage: relative to vehicle
# Excerpt: as §1, §2
# The selected groups of compounds were assessed for their ability to skew T cell phenotype. […] Tcm is characterized herein by expression of both CCR7 and CD62L. The expression of either CD62L or CCR7 on T cells, as indicative of the desired T cell subsets, indicates a favorable functional characteristic for CAR-T cell therapy, and potentially other adoptive T cell therapies. The phenotypic studies use flow cytometry to measure the expression levels of these key surface proteins. Compounds were scored on expression of these individual Tcm markers as well as CD62L/CCR7 double positive cells (FIG. 1A). The scores in FIG. 1A were generated using the values obtained from four donors and the formula: Score=Normalized StDev over Vehicle×Significance (−log 10(p-value))+1 Scores for other graphs in this figure used the same formula.
# [3] = test system: irradiated K562 cells expressing CD19 and mKate2; assay: Target cell killing by compound-treated CAR-T cells (IncuCyte); format: cell-based, human; details: earlier time points, 24 to 65 hours; FIG. 4A
# Description: An in vitro serial killing/re-stimulation assay, where the T cells treated by each compound were evaluated for various functions, including expansion and ability to kill tumor cells expressing the target antigen in vitro over multiple rounds of exposure to and withdrawal from antigen, was used as a model system. Such assays were carried out on cells treated with or without compounds, to assess the impact of individual compounds on cell function after repeated encounter with antigen, and cell expansion or persistence in such contexts.
# An in vitro serial killing/re-stimulation assay, where CAR-T cells are tested for the ability to “clear” tumor cells in vitro over multiple rounds, can be used as a model to assess CAR-T expansion in the presence of tumor cells that express the antigen recognized by the CAR.
# CD8 T cells were transduced with CARs and the cells were then cryopreserved. After thawing, the CAR-T cells were co-cultured with irradiated K562 tumor cells that express transgenic mKate2, a far-red fluorescent protein, and CD19, the antigen recognized by the CAR. […]
# From this, the Area Under the Curve (AUC) for CAR-T cells treated with each compound can be calculated. […] To determine the effect of compound treatment on the killing ability of CAR-T cells, the AUC relative to target cells alone was determined.
# Nalm-6 = assay: Survival in Nalm6/NSG tumor model, suboptimal CAR-T dose; format: in vivo, NSG mice; details: 3×10^5 CD19 CAR-T cells; FIG. 12A; listed as PI3K inhibitor
# Description: (§3) Next, an in vivo assay was conducted to further characterize CAR-T cells produced in the presence of a PI3K inhibitor or a PDK1 inhibitor for tumor clearance. NSG mice were injected with a human leukemia line, Nalm-6. Four days later, mice were treated with a suboptimal dose (3×10^5) of freshly thawed CD19 CAR-T cells generated in the presence of vehicle (“DMSO” n=8), PI3K inhibitor (n=8), or PDK1 inhibitor (n=8). Some tumor bearing mice (n=2) also received expanded T cells that were not transduced with CAR (untransduced or “UNTD”). Negative control mice (n=2, “Unmanip”) received neither tumor nor CAR T cells. […] Seven days later, a suboptimal dose (2.5×10^5) of CD19 CAR-T cells produced in the presence of DMSO, PDK1 inhibitor, or PI3K inhibitor were transferred and the survival of the tumor bearing mice was monitored.
# Raji = assay: Survival in Raji/NSG tumor model, suboptimal CAR-T dose; format: in vivo, NSG mice; details: 2.5×10^5 CD19 CAR-T cells; FIG. 12B; listed as PI3K inhibitor
# Description: as §3
# CAR-T cells = assay: Serial restimulation of CAR-T cells produced with vehicle, PI3K inhibitor or PDK1 inhibitor; format: cell-based, human; details: after antigen stimulation and withdrawal, and with coated beads; FIG. 10 legend
# Description: At the end of the manufacturing process, the cells were frozen prior to subsequent functional analysis.
# The ability of CAR-T cells produced in the presence of vehicle, PI3K inhibitor, or PDK1 inhibitor to expand through multiple rounds of antigen stimulation was measured in a serial restimulation assay, wherein cryopreserved CAR-T cells were thawed and co-cultured in the presence of antigen-bearing, irradiated target cells. Every 3 to 4 days the CAR-T and target cell ratios were readjusted to approximately 1:1. […] As an alternative to using antigen-bearing, irradiated target cells for CAR-T cell stimulation, cryopreserved CAR-T cells from three independent donors produced in the presence of vehicle, PI3Ki or PDKli were thawed in T cell growth media and subsequently assessed for expansion and survival, as measured by AUC (area under the curve) of the expansion over 14 days of stimulation with anti-CAR antibodies conjugated to beads.
structure (smiles),measurement,setting,value
"Cc1sc2c(c1C)C(c1ccc(Cl)cc1)=N[C@@H](CC(=O)Nc1ccc(O)cc1)c1nnc(C)n1-2 [Compound 1, OTX015]",increase of total multifunctional subpopulation (at least 2 cytokines),"CD8+ T cells; CD8+ T cells, vs vehicle",~16 fold
same,increase of cells producing all three cytokines,"CD8+ T cells; IFNγ, IL-2, TNFα",~13 fold
same,increase of IFNγ+ only subpopulation,CD8+ T cells,about 33 fold
"Cc1ccc(-c2ncc(Cl)cc2-c2ccc(S(C)(=O)=O)cc2)cn1 [Compound 7, Etoricoxib]",cell viability and/or expansion relative to vehicle treatment,[1],enhance cell viability and/or expansion
same,Tcm phenotype / effect on improving Tcm percentage,[2],minimal effect
"O=C1NCCN1CCN1CCC(c2cn(-c3ccc(F)cc3)c3ccc(Cl)cc23)CC1 [Compound 8, Sertindole]",cell viability and/or expansion relative to vehicle treatment,[1],enhance cell viability and/or expansion
same,Tcm phenotype / effect on improving Tcm percentage,[2],minimal effect
"CC1(C)O[C@@H]2C[C@H]3[C@@H]4C[C@H](F)C5=CC(=O)C=C[C@]5(C)[C@H]4[C@@H](O)C[C@]3(C)[C@]2(C(=O)CO)O1 [Compound 10, Flunisolide]",cell viability and/or expansion relative to vehicle treatment,[1],enhance cell viability and/or expansion
same,Tcm phenotype / effect on improving Tcm percentage,[2],minimal effect
"CC(=O)OCC(=O)[C@@]1(O)[C@H](C)C[C@H]2[C@@H]3CCC4=CC(=O)C=C[C@]4(C)[C@@]3(F)[C@@H](O)C[C@@]21C [Compound 11, Dexamethasone Acetate]",cell viability and/or expansion relative to vehicle treatment,[1],enhance cell viability and/or expansion
same,Tcm phenotype / effect on improving Tcm percentage,[2],minimal effect
"CC(=O)OCC(=O)[C@@]12OC3(CCCC3)O[C@@H]1C[C@H]1[C@@H]3CCC4=CC(=O)C=C[C@]4(C)[C@@]3(F)[C@@H](O)C[C@@]12C [Compound 12, Amcinonide]",cell viability and/or expansion relative to vehicle treatment,[1],enhance cell viability and/or expansion
same,Tcm phenotype / effect on improving Tcm percentage,[2],minimal effect
"C1=C/COCc2cc(ccc2OCCN2CCCC2)Nc2nccc(n2)-c2cccc(c2)COC/1 [Compound 17, Pacritinib]",increase of IL-2 only subpopulation,CD8+ T cells,about 11 fold
"C[C@@H]1CCN(C(=O)CC#N)C[C@@H]1N(C)c1ncnc2[nH]ccc12 [Compound 18, Tofacitinib]",increase of IL-2 only subpopulation,CD8+ T cells,~4 fold
"Cc1ccc(NC(=O)c2cccc(C(C)(C)C#N)c2)cc1Nc1ccc2ncn(C)c(=O)c2c1 [Compound 23, AZ628]",increase of IFNγ+ only subpopulation,CD8+ T cells,~116 fold
same,increase of IL-2 only subpopulation,CD8+ T cells,~18 fold
same,kinetics of target cell killing compared to vehicle,[3],slower than for vehicle
"CC(C)(C)c1nc(-c2cccc(NS(=O)(=O)c3c(F)cccc3F)c2F)c(-c2ccnc(N)n2)s1 [Compound 24, Dabrafenib]","increase of the percentage of CCR7, CD62L double positive cells (Tcm) relative to vehicle","[2]; T cells, about 6 days with anti-CD3/CD28 beads, vs DMSO",about 10 fold
Oc1cccc(-c2nc(N3CCOCC3)c3oc4ncccc4c3n2)c1 [PI103],survival of tumor bearing mice compared to DMSO generated CAR-T cells,Nalm-6,prolonged survival; also recorded: improves survival
same,survival of tumor bearing mice compared to DMSO treated CAR-T cells,Raji,substantially improved; also recorded: improves survival
same,CAR-T cell expansion,CAR-T cells,improves CAR-T cell expansion
